Experimental data from patent US9624277B2, “Anticancer agent” (AMRITA THERAPEUTICS LIMITED, priority 2010, dated 2017).
No end group written: not given here.

Legend:
HepG2 liver cancer = conditions: HepG2 cells (liver cancer), 24 h, MTT; MPT-63 at 1, 5 and 10 μM
[1] = test system: UM-UC-3 bladder cancer cell line; assay: MTT cytotoxicity assay, UM-UC-3 bladder carcinoma cell line; format: cell-based, human; conditions: UM-UC-3 cells, 1.0 and 10 μM, 24 h
Source text: ATCC: UM-UC-3: Human cell line with epithelial-like characteristics established from a high grade invasive urinary bladder carcinoma of a patient. This is a hypertriploid human cell line and IFN non responsive. This cell line is tumorigenic in nature.

MDA-MB-231 breast cancer = conditions: MDA-MB-231 cells (breast cancer), 24 h, MTT; MPT-63 at 1, 5 and 10 μM
U87 human glioblastoma = conditions: U87 cells (brain cancer), 24 h, MTT; MPT-63 at 1, 5 and 10 μM
[2] = test system: HCT 116 colorectal cancer cell line; format: cell-based, human; conditions: HCT 116 cells, compared with MB30, MTT
Source text: ATCC HCT 116: Human cell line with epithelial-like characteristics established from colorectal carcinoma from an adult patient. The cells are positive for keratin by immunoperoxidase staining. HCT 116 cells are positive for transforming growth factor beta 1 (TGF beta 1) and beta 2 (TGF beta 2) expression. This line has a mutation in codon 13 of the ras protooncogene, and can be used as a positive control for PCR assays of mutation in this codon.

[3] = test system: SiHa cervix cancer cell line; conditions: SiHa cells, compared with MB30, MTT
Description: (§1) The viability of the cells was estimated by using MTT assay on the basis of formazan formed, which was detected spectrophotometrically by optical density at 570 nm at 24 h, 48 h and 72 h [Bar-mean±S.E.].
(§2) MTT [3-(4, 5-dimethylthiazol-2-yl)-2,5-diphenyl tetrazolium bromide] assay was carried out for measurement of the cytotoxicity of different anticancer peptides. The water soluble tetrazolium salt, MTT [3-(4,5-dimethylthiazol-2-yl)-2,5-diphenyl tetrazolium bromide] is metabolized to the water insoluble formazan by intact mitochondrial dehydrogenases. The formazan is then solubilized by adding 2-propanol+40 mM HCl for 4 h incubation. […] The viability of the cells was estimated on the basis of formazan formed, which was detected spectrophotometrically by optical density at 570 nm at 24 h, 48 h and 72 h. At every time point such as 24 h, 48 h and 72 h, 1×10^4 cells were seeded without the peptide in triplicate in each plate for a given treatment of peptide. This was used as control cytotoxicity levels to calculate the percent cell cytotoxicity of every peptide treatment. […] All the experiments were carried out in triplicates and repeated three times.

[4] = test system: CaSki cervix cancer cell line; conditions: CaSki cells, compared with MB30, MTT
Description: as §1
All cell lines were grown under standard conditions in humidified 37° C. incubator in 5% CO2 as described earlier (Garg et al., 2009; Kanojia et al., 2010).
as §2

GQVWEATATVNAIRGSVTPAVSQFNARTAD [MB30]
cytotoxicity (in words) (HepG2 liver cancer): better cytotoxicity in comparison to the full length protein MPT-63
cytotoxicity levels (in words) [1]: higher cytotoxicity levels than the other peptide
cytotoxicity (in words) (MDA-MB-231 breast cancer): better cytotoxicity in comparison to the full length protein MPT-63
cytotoxicity (in words) (U87 human glioblastoma): better cytotoxicity in comparison to the full length protein MPT-63

NHFTLKCPKTALTEPPTLAY [TG20]
cytotoxicity (in words) [2]: less cytotoxicity
cytotoxicity (in words) [3]: less cytotoxicity
cytotoxicity (in words) [4]: less cytotoxicity

TAGIKLTVPIEKFPVTTQTFVVG [TG23]
cytotoxicity (in words) [2]: less cytotoxicity
cytotoxicity (in words) [3]: less cytotoxicity
cytotoxicity levels (in words) [1]: higher cytotoxicity levels than the other peptide
cytotoxicity (in words) [4]: less cytotoxicity

B1: MPT-63 (protein, listed as Mycobacterium bovis)
chain: MKLTTMIKTAVAVVAMAAIATFAEPVALAAYPITGKLGSELTMTDTVGQVVLGWKVSDLKSSTAVIPGYPVAGQVWEATATVNAIRGSVTPAVSQFNARTADGINYRVLWQAAGPDTISGATIPQGEQSTGKIYFDVTGPSPTIVAMNNGMQDLLIWEP
cytotoxicity (in words) (HepG2 liver cancer): shown cytotoxicity
cytotoxicity (in words) (MDA-MB-231 breast cancer): shown cytotoxicity
cytotoxicity (in words) (U87 human glioblastoma): shown cytotoxicity
